According to patent US4363807A, “Cepham compounds” (Fujisawa Pharmaceutical Company, Limited, priority 1978, dated 1982):
In brackets after ≈: the same amount, converted by molar mass.

Legend:
Proteus mirabilis 18 = test: In vitro antibacterial activity, two-fold agar-plate dilution method (MIC), Proteus mirabilis 18; format: cell-based; settings: heart infusion agar, 37° C., 20 hours, read-out: MIC (minimal inhibitory concentration)
Procedure: (§1) 1. In vitro antibacterial activity: (1) Test method: In vitro antibacterial activity was determined by the two-fold agar-plate dilution method as described below. One loopful of an overnight culture of each test strain in Trypticase soy broth was streaked on heart infusion agar (HI-agar) containing graded concentration of the test compound and incubated at 37° C. for 20 hours. The minimal inhibitory concentration (MIC) was expressed in μg/ml.

Klebsiella pneumoniae 20 = test: In vitro antibacterial activity, two-fold agar-plate dilution method (MIC), Klebsiella pneumoniae 20; format: cell-based; settings: heart infusion agar, 37° C., 20 hours, read-out: MIC (minimal inhibitory concentration)
Procedure: as §1

CO/N=C(\C(=O)NC1C(=O)N2C(C(=O)O)C(=COC(C)=O)CSC12)c1csc(N)n1 (stereo not drawn) [Test compound, 7-[2-(2-Aminothiazol-4-yl)-2-methoxyiminoacetamido]-3-acetoxymethylenecepham-4-carboxylic acid (syn isomer)]
MIC (Proteus mirabilis 18): 6.25 µg/mL (≈ 13.7 µM) | MIC (Klebsiella pneumoniae 20): 6.25 µg/mL (≈ 13.7 µM)
